In patent publication US9061984B2 (University of Louisville Research Foundation, Inc., priority 2008, dated 2015):
pIC50: −log10 of the molar value. In brackets after ≈: the same amount, converted by molar mass. Where two headings read alike, the source gives them in different places.

Tests used:
[1] = system: Trypanosoma cruzi (Tulahuen C4); experiment: In vitro anti-T. cruzi activity (β-galactosidase CPRG colorimetric assay in VERO monolayer); format: cell-based; details: for inhibition at 10 µg/mL / IC50 / pIC50: Trypanosoma cruzi, TULAHUEN, Vero; for inhibition at 10 µg/mL: 120 h, 10 μg/mL of each compound, 120 hours, read-out: T. cruzi Inhib. (%); for pIC50: Table 3, read-out: IC50 T. cruzi
VERO cells [2] = experiment: Cytotoxicity on VERO cells (MTT), anti-T. cruzi study; details: for pIC50: Chlorocebus sabaeus, Vero, read-out: IC50 VERO, Table 3
[3] = as above; details: African green monkey, VERO cells
peritoneal macrophages = experiment: Toxicity to peritoneal macrophages (Trypan Blue count); format: cell-based, BALB/C mouse
Method: (§1) Peritoneal macrophages were prepared as follows. Non-inflammatory macrophages (10^6) were collected from each BALB/C mouse. The cells adhered at 37° C. after 2 h under 5% CO2 in a CO2 incubator. The plates were then rinsed two to three times with 0.5 mL of RPMI+buffer MOPS without fetal calf serum to eliminate non-adhering cells. The supernatant on the plates was replaced by fresh medium (RPMI+glutamine+FCS+antibiotics), 0.5 mL of medium per well. To determine the toxicity of the compounds to macrophages, dilutions of compounds were added on a part of the macrophages prepared above. […] The medium was then removed and 1 μL of sterile Trypan Blue was added. Cover glasses N° 1 were left where cells were plated and then the number of macrophages in a microscope was determined with a haemocytometer. All experiments were performed in triplicate.

[4] = system: axenic amastigotes of L. amazonensis (strain MHOM/BR/76/LTB-012); experiment: microbe, parasite or virus in culture; details: Leishmania amazonensis
MCF-7 cells = experiment: Cell growth inhibition bioassay (sulforhodamine B); format: cell-based, human; details: 48 h, SRB; for GI50: Homo sapiens, MCF7, read-out: GI50 in indicated cell line: MCF-7
Method: (§2) The cytotoxicity of compounds was assayed as follows. […] Appropriate solvent controls were tested for comparison. The percent inhibition of cell growth relative to the control was evaluated colorimetrically using a sulforhodamine B dye by comparison to the control. The calorimetric procedure followed that published in Skehan et al., J. Nat. Cancer Inst., […], pp. 1107-1112 (1990) and Boyd & Paull, Drug Dev. Res., Vol. 34, pp. 91-109 (1995). […] The cell lines are: 3T3 cells are BALB/3T3 clone A31 embryonic mouse fibroblast cells; H460 cells are human large cell lung cancer cells; DU145 cells are human prostate carcinoma cells; MCF-7 cells are human breast adenocarcinoma cells; M-14 cells are human melanoma cells; HT-29 cells are human colon adenocarcinoma cells; PC3 cells are human prostate adenocarcinoma cells; K562 cells are human chronic myelogenous leukemia cells; and VERO cells are African Green Monkey kidney epithelial cells.

DU145 cells = experiment: Cell growth inhibition bioassay (sulforhodamine B); format: cell-based, human; details: 48 h, SRB; for GI50: Homo sapiens, DU-145, read-out: GI50 in indicated cell line: DU145
Method: as §2

HT-29 cells = experiment: Cell growth inhibition bioassay (sulforhodamine B); format: cell-based, human; details: 48 h, SRB; for GI50: Homo sapiens, HT-29, read-out: GI50 in indicated cell line: HT-29
Method: as §2

M-14 cells = experiment: Cell growth inhibition bioassay (sulforhodamine B); format: cell-based, human; details: 48 h, SRB; for GI50: Homo sapiens, M14, read-out: GI50 in indicated cell line: M-14
Method: as §2

H460 cells = experiment: Cell growth inhibition bioassay (sulforhodamine B); format: cell-based, human; details: 48 h, SRB; for GI50: Homo sapiens, NCI-H460, read-out: GI50 in indicated cell line: H460
Method: as §2

K562 cells = experiment: Cell growth inhibition bioassay (sulforhodamine B); format: cell-based, human; details: 48 h, SRB; for GI50: Homo sapiens, K562, read-out: GI50 in indicated cell line: K562
Method: as §2

[5] = system: axenic amastigotes of L. amazonensis (strain MHOM/BR/76/LTB-012); details: Table 8b
[6] = Cytotoxicity VERO cell (Table 6); details: African green monkey, VERO cells
M. tuberculosis H37Rv = experiment: Conventional aerobic (MABA) culture assay, luminescence MIC; format: cell-based, Mycobacterium tuberculosis; details: for MIC: Mycobacterium tuberculosis, 168 h
[7] = Toxicity to peritoneal macrophages (Trypan Blue count); format: cell-based, BALB/C mouse; details: BALB/C, mouse, Cytotoxicity Macrophages IC50
Method: as §1

3T3 cells = experiment: Cell growth inhibition bioassay (sulforhodamine B); format: cell-based, mouse; details: 48 h, SRB; for GI50: Mus musculus, NIH3T3, read-out: GI50 in indicated cell line: 3T3
Method: as §2

VERO cells [8] = experiment: Cell growth inhibition bioassay (sulforhodamine B); format: cell-based, African Green Monkey; details: 48 h, SRB; for GI50: Chlorocebus sabaeus, Vero, read-out: GI50 in indicated cell line: VERO
Method: as §2

L. peruviana LCA08 = experiment: Activity against macrophages infected with Leishmania amastigotes; details: Leishmania peruviana, Macrophage, read-out: IC50 L. peruviana LCA08
L. amazonensis = details: intralesional, compounds 5 mg/kg/day, Glucantime 33 mg Sb(v)/kg/day; for Mean lesion wt (mg) (±SD): BALB/c mice n=10; for % Variation of lesion wt / % reduction of parasite burden in the lesion: vs control
L. braziliensis PER006 = experiment: Activity against macrophages infected with Leishmania amastigotes; details: Leishmania braziliensis, Macrophage, read-out: IC50 L. braziliensis PER006
[9] = Table 2, read-out: IC50 - T. cruzi
[10] = IC50 - VERO Cytotoxicity, Table 2
[11] = Mus musculus, Peritoneal macrophage, 48 h, Table 7, read-out: IC50 Macrophage
[12] = 72 h, read-out: IC50 L. amazonensis

Row | Compound | inhibition at 10 µg/mL [1] [%] | IC50 [1, 9] [µg/mL] | pIC50 [1] | pIC50 (VERO cells [2]) | IC50 [3, 10] [µg/mL] | pIC50 (peritoneal macrophages; [11]) | pIC50 [4, 12] | GI50 (MCF-7 cells) [µg/mL] | GI50 (DU145 cells) [µg/mL] | GI50 (HT-29 cells) [µg/mL] | GI50 (M-14 cells) [µg/mL] | GI50 (H460 cells) [µg/mL] | GI50 (K562 cells) [µg/mL] | Selectivity Index [5] | MIC (M. tuberculosis H37Rv; aerobic, 7 days, H37Rv) [µg/mL] | IC50 ([3]; Cytotoxicity VERO Lab B, Lab B) [µg/mL] | IC50 at 48 h [7] [µM] | GI50 (3T3 cells) [µg/mL] | pIC50 ([4]; read-out: L. amazonensis IC50) | GI50 (VERO cells [8]) [µg/mL] | also measured
1 | C=CCOc1cc(OC)c(C(=O)/C=C/c2cc(OC)c(OC)c(OC)c2)c(OCC=C)c1 [Compound I-20, (2E)-1-[2-Methoxy-4,6-bis(2-propenyloxy)phenyl]-3-(3,4,5-trimethoxyphenyl)-2-propen-1-one] | 76.1 | 1.5 | 5.47 | 4.39 | 18 (≈ 40.9 µM) | 4.92 | 5.09 | – | – | – | – | – | – | – | – | – | – | – | – | – | –
2 | Brc1ccccc1/C=N\Nc1ncnc2sc3c(c12)CCCC3 [II-31] | – | – | – | – | – | – | – | 1.7 (≈ 4.39 µM) | 2.8 (≈ 7.23 µM) | 3.1 (≈ 8 µM) | 6 (≈ 15.5 µM) | 3 (≈ 7.75 µM) | 1.2 (≈ 3.1 µM) | 5.8 | 9.4 (≈ 24.3 µM) | 3 (≈ 7.75 µM) | 2.9 | 4.3 (≈ 11.1 µM) | 6.30 | 2 (≈ 5.16 µM) | IC50 [6]: 7.7 µg/mL (≈ 19.9 µM); Selectivity Index Lab B ([1]; IC50, VERO/IC50, T. cruzi, Lab B): 0.8; IC50 ([1]; Lab A, read-out: T. cruzi IC50 Lab A): 0.8 µg/mL; IC50 ([1]; Lab B, read-out: T. cruzi IC50 Lab B): 3.6 µg/mL; Selectivity Index H37Rv (M. tuberculosis H37Rv; VERO vs MABA MIC): 0.8
3 | CCc1ccc(/C=N\Nc2ncnc3sc4c(c23)CCCC4)cc1 [II-06] | – | – | – | – | – | – | – | 6.2 (≈ 18.4 µM) | 19.8 (≈ 58.8 µM) | 10.8 (≈ 32.1 µM) | 64 (≈ 190 µM) | 9.5 (≈ 28.2 µM) | 3.7 (≈ 11 µM) | 9.6 | > 100 | 4 (≈ 11.9 µM) | 50.9 | 12.1 (≈ 36 µM) | 5.28 | 6.6 (≈ 19.6 µM) | IC50 (L. peruviana LCA08): 3.2 µg/mL (≈ 9.51 µM); Mean lesion size (mm) (L. amazonensis; after 4 weeks treatment): 3.0 mm; Mean parasite quantification (per 10^6) in lesion per mg (±SD) (L. amazonensis; after 4 weeks treatment): 1.19 (±0.27) amastigotes (×10^6)/mg; Mean lesion wt (mg) (±SD) (L. amazonensis; after 4 weeks treatment): 70.9 (±9.9) mg; % Variation of lesion wt (L. amazonensis; after 4 weeks treatment): −17%; % reduction of parasite burden in the lesion (L. amazonensis; after 4 weeks treatment): 30%; Mean lesion size (mm) (L. amazonensis; after 7 weeks treatment): 4.7 mm; Mean parasite quantification (per 10^6) in lesion per mg (±SD) (L. amazonensis; after 7 weeks treatment): 1.46 (±0.30) amastigotes (×10^6)/mg; Mean lesion wt (mg) (±SD) (L. amazonensis; after 7 weeks treatment): 78.4 (±1.6) mg; % Variation of lesion wt (L. amazonensis; after 7 weeks treatment): 12%; % reduction of parasite burden in the lesion (L. amazonensis; after 7 weeks treatment): 2%; IC50 (L. braziliensis PER006): 3.5 µg/mL (≈ 10.4 µM)
4 | Cc1ccc(C=NNc2ncnc3sc4c(c23)CCCC4)cc1 [II-05] | – | – | – | – | – | – | – | – | – | – | – | – | – | – | – | – | – | – | – | – | GI50 in indicated cell line: MCF-7 (MCF-7 cells): 4.2 µg/mL (≈ 13 µM); GI50 in indicated cell line: DU145 (DU145 cells): >62.5 µg/mL; GI50 in indicated cell line: HT-29 (HT-29 cells): >62.5 µg/mL; GI50 in indicated cell line: M-14 (M-14 cells): >62.5 µg/mL; GI50 in indicated cell line: H460 (H460 cells): 42.9 µg/mL (≈ 133 µM); GI50 in indicated cell line: K562 (K562 cells): 2.3 µg/mL (≈ 7.13 µM); pIC50 ([5]; read-out: L. amazonensis IC50): 4.86; MIC MABA (M. tuberculosis H37Rv; aerobic, 7 days, H37Rv): >100 µg/mL; Cytotoxicity VERO Lab B (VERO cells [2]; Lab B): 11.0; pIC50 (peritoneal macrophages): 5.20; GI50 in indicated cell line: 3T3 (3T3 cells): 12.1 µg/mL (≈ 37.5 µM); GI50 in indicated cell line: VERO (VERO cells [8]): 10.0 µg/mL (≈ 31 µM)
5 | C=CCOc1cc(OC)c(C(=O)/C=C/c2ccccc2F)c(OCC=C)c1 [Compound I-15, (2E)-3-(2-Fluorophenyl)-1-[2-methoxy-4,6-bis(2-propenyloxy)phenyl]-2-propen-1-one] | 66.5 | 2.29 | 5.21 | 4.79 | 6 (≈ 16.3 µM) | 4.88 | 5.02 | – | – | – | – | – | – | – | – | – | – | – | – | – | –
